Reference: publication PMC4189421, “Induction of Oligodendrocyte Differentiation and In Vitro Myelination by Inhibition of Rho-Associated Kinase” (ASN NEURO, 2014)

System: hPSC-OPCs cocultured with rat dorsal root ganglion neurons
Experiment: Myelination in hPSC-OPC / rat DRG neuron cocultures (MBP/NF overlap)
Assay type: cell-based, human
Settings: compound for first 48 hr, 28 days coculture
Procedure: Human pluripotent stem cell-derived OPC (hSC-OPC)/[…] dorsal root ganglion (rDRG) cocultures were carried out as follows: 5,000 hES-OPCs were seeded on top of 14-day-old DRG neuron axons in each well of 96-well black μClear plates (Greiner). The cells were seeded in 100 μl of myelination media (MYL) for each well. Twenty-four hours after seeding, media were gently removed, and a fresh MYL medium that contained the compound of interest at a specific dilution (in 0.1% DMSO) was supplemented to the media (first feeding), and the total volume for each well was 200 μl. For each tested compound dose, four replicates were used. After 48 hr, the media were replenished by removing 100 μl of media, and fresh MYL medium (that contains 0.1% DMSO) was added to the wells. […]
The ArrayScan VTI HCS reader system (Cellomis, Thermo-scientific) was used for scanning 49 fields for each tested well under 10× objective. […] The four-parameter Hill-Slope curve fittings were generated by GraphPad Prism software using least squares fitting method, and EC50 values were calculated for the three major parameters of oligodendrocyte myelination: number of differentiated oligodendrocytes, areas of myelinated axons in pixels (MBP and NF overlap area), and number of myelinated regions (MBP and NF overlap count). […]

C[C@@H](N)[C@H]1CC[C@H](C(=O)Nc2ccncc2)CC1.Cl.Cl [Y0503, trans-4-[(1 R)-1-aminoethyl]-N-4-pyridinylcyclohexanecarboxamide dihydrochloride]
Number and length of MBP-positive oligodendrocyte processes colocalized with NF-positive axons: dose-response effect
